Results on six compounds are retold here after paper PMC4204381 (Computational and Structural Biotechnology Journal, 2014).

Like-named read-outs stand apart in the source and are kept apart here. A value given as a limit tells only on which side of the number the result lay.

The subject of data set [1] is Male Sprague–Dawley rats. It counts as in vivo, rat. The settings on record: p < 0.05; for Oleoylcarnitine blood level vs control: Fig. 4A; for Palmitoylcarnitine blood level vs control: Fig. 4B; for LysoPC(20:1) blood level vs control: Fig. 4C.
Data set [2] relates to Male Sprague–Dawley rats. In words: Histopathology and tissue observations in rats after a single oral dose. To be noted: for hepatic vacuolization / hepatic necrosis: low and high doses, 6 or 24 h.
Data set [3] relates to Male Sprague–Dawley rats. Nature of the data set: Clinical chemistry. To be noted: for clinical chemistry changes (ALT, AST, ALP): low dose, 6 or 24 h.
A further data set deals with patients. The settings on record: cited from earlier work.

Take `CC(=O)Nc1ccc(O)cc1` [APAP, acetaminophen]: in the data set with Male Sprague–Dawley rats [1] (6 h), the “Oleoylcarnitine blood level vs control” value is listed as “significantly increased”, the “Palmitoylcarnitine blood level vs control” value was “significantly increased” and the “LysoPC(20:1) blood level vs control” value is listed as “significantly decreased”. Further, in the data set on Male Sprague–Dawley rats [1] (24 h), the “Oleoylcarnitine blood level vs control” value is given as “significantly increased”, the “Palmitoylcarnitine blood level vs control” value was “appeared to be increased” and the “LysoPC(20:1) blood level vs control” value is “appeared to be decreased”.

On to `Cc1cnc(NC(=O)C2=C(O)c3ccccc3S(=O)(=O)N2C)s1` [MEL, meloxicam], for which, in the data set with Male Sprague–Dawley rats [2], the “hepatic vacuolization / hepatic necrosis” value is “neither hepatic vacuolization nor hepatic necrosis”. Further, in the data set on Male Sprague–Dawley rats [2] (rats treated with MEL for 24 h), the “inflammation in the capsule of kidney (incidence)” value was 1 out of 5 and the “inflammation in the capsule of liver (incidence)” value is listed as 2 out of 5. The “ALT increase of the ALT value of the control group” value in the data set with Male Sprague–Dawley rats [3] (24 h, high dose group) is recorded as < 2 fold. Besides, the “Palmitoylcarnitine blood level vs control” value with Male Sprague–Dawley rats [1] (6 h) is on record as “significantly increased”. The “LysoPC(20:1) blood level vs control” value with Male Sprague–Dawley rats [1] (24 h) is “appeared to be decreased”.

Consider `CN(C)C(=N)N=C(N)N` [MET, metformin], for which the “hepatic vacuolization / hepatic necrosis” value in the data set with Male Sprague–Dawley rats [2] is on record as “neither hepatic vacuolization nor hepatic necrosis”. Moreover, in the data set on Male Sprague–Dawley rats [3] (6 h, high dose), the “ALT increase of ALT value in control group” value is on record as < 3 fold. In the data set with Male Sprague–Dawley rats [3], the “clinical chemistry changes (ALT, AST, ALP)” value is “did not have any clinical chemistry changes”. In the data set on patients (by 2012, concomitant intake of other potential hepatotoxicants), the “cases of liver injury reported to be associated with MET” value was < 10 cases. For the same compound, the “Oleoylcarnitine blood level vs control” value in the data set on Male Sprague–Dawley rats [1] (6 h) is reported as “significantly increased”. Besides, in the data set on Male Sprague–Dawley rats [1] (6 h, Fig. 4D), the “Taurocholic acid blood level vs control” value is listed as “significantly decreased”.

For the compound `NC(=O)OCC(COC(N)=O)c1ccccc1` [FEL, felbamate], in the data set on Male Sprague–Dawley rats [2], the “hepatic vacuolization / hepatic necrosis” value is listed as “neither hepatic vacuolization nor hepatic necrosis”. Further, the “clinical chemistry changes (ALT, AST, ALP)” value with Male Sprague–Dawley rats [3] is “did not have any clinical chemistry changes”. The “LysoPC(20:1) blood level vs control” value with Male Sprague–Dawley rats [1] (6 h) and with Male Sprague–Dawley rats [1] (24 h) was “significantly decreased” each time. Also, the “Palmitoylcarnitine blood level vs control” value in the data set on Male Sprague–Dawley rats [1] (24 h) is given as “appeared to be increased”.

Consider `O=C1CN(/N=C/c2ccc(-c3ccc([N+](=O)[O-])cc3)o2)C(O)=N1` [DAN, dantrolene], for which the “hepatic vacuolization / hepatic necrosis” value with Male Sprague–Dawley rats [2] is reported as “neither hepatic vacuolization nor hepatic necrosis”. Moreover, the incidence of hepatotoxicity with patients (patients) is 0.35%. The “Palmitoylcarnitine blood level vs control” value in the data set on Male Sprague–Dawley rats [1] (6 h) is on record as “significantly increased”. The “LysoPC(20:1) blood level vs control” value in the data set with Male Sprague–Dawley rats [1] (24 h) is “significantly decreased”.

As for `Nc1c2c(nc3ccccc13)CCCC2` [tacrine], the “ALT increase with no liver cell injury” value in the data set on patients (human, in vivo) is given as > 20 fold of the upper limit of normal.
